# Patent publication US7759356B2, “Arylindenopyridines and arylindenopyrimidines and related therapeutic and prophylactic methods” (Janssen Pharmaceutica, N.V., priority 2002, dated 2010)
# Tests used:
# [1] = molecular target: T1, human A2a adenosine receptor (Homo sapiens, UniProt P29274); assay: Ligand binding assay for adenosine A2a receptor ([3H]CGS21680, HEK293 membranes); conditions: radioligand [3H]CGS21680, HEK293 plasma membrane
# T1 construct: purchased PerkinElmer RB-HA2a; host or cells: HEK293 cell plasma membranes
# T1 sequence (P29274 whole entry): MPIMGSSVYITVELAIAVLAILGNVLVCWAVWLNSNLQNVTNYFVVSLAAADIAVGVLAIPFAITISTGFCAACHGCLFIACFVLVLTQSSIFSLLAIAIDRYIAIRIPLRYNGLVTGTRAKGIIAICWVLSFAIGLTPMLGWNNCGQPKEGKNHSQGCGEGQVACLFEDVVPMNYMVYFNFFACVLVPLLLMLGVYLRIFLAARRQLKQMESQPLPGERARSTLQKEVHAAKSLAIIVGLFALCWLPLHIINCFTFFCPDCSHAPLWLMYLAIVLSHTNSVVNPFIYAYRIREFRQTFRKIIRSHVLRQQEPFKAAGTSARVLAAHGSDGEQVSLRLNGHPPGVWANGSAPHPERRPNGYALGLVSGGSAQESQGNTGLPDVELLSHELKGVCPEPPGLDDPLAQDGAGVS
# Experimental: Ligand Binding Assay for Adenosine A2a Receptor
# Ligand binding assay of adenosine A2a receptor was performed using plasma membrane of HEK293 cells containing human A2a adenosine receptor (PerkinElmer, RB-HA2a) and radioligand [^3H]CGS21680 (PerkinElmer, NET1021). Assay was set up in 96-well polypropylene plate in total volume of 200 μL by sequentially adding 20 μL1:20 diluted membrane, 130 μL assay buffer (50 mM Tris.HCl, pH7.4 10 mM MgCl2, 1 mM EDTA) containing [^3H] […] Nonspecific binding was determined by […] NECA. Reaction was carried out at room temperature for 2 hours before filtering through 96-well GF/C filter plate pre-soaked in 50 mM Tris.HCl, pH7.4 containing 0.3% polyethylenimine. Plates were then washed 5 times with cold 50 mM Tris.HCl, pH7.4, dried and sealed at the bottom. Microscintillation fluid 30 μl was added to each well and the top sealed. Plates were counted on Packard Topcount for [^3H]. Data was analyzed in Microsoft Excel and GraphPad Prism programs.
# [2] = molecular target: T2, human adenosine A2a receptors (Homo sapiens, UniProt P29274); assay: Adenosine A2a receptor functional assay (antagonist mode, cAMP-inducible beta-galactosidase reporter, CHO-K1 cells, 50 nM NECA); format: cell-based; conditions: read-out: Ki A2a antagonist function
# T2 construct: expressed in transfected cells; host or cells: CHO-K1 cells with cAMP-inducible beta-galactosidase reporter gene
# T2 sequence (P29274 whole entry): as above
# Experimental: Adenosine A2a Receptor Functional Assay
# CHO—K1 cells overexpressing human adenosine A2a receptors and containing cAMP-inducible beta-galactosidase reporter gene were seeded at 40-50K/well into 96-well tissue culture plates and cultured for two days. On assay day, cells were washed once with 200 μL assay medium (F-12 nutrient mixture/0.1% BSA). For agonist assay, adenosine A2a receptor agonist NECA was subsequently added and cell incubated at 37° C., 5% CO2 for 5 hrs before stopping reaction. In the case of antagonist assay, cells were incubated with antagonists for 5 minutes at R.T. followed by addition of 50 nM NECA. Cells were then incubated at 37° C., 5% CO2 for 5 hrs before stopping experiments by washing cells with PBS twice. 50 μL 1× lysis buffer (Promega, 5× stock solution, needs to be diluted to 1× before use) was added to each well and plates frozen at −20° C. For β-galactosidase enzyme colorimetric assay, plates were thawed out at room temperature and 50 μL 2× assay buffer (Promega) added to each well. Color was allowed to develop at 37° C. for 1 h or until reasonable signal appeared. Reaction was then stopped with 150 μL 1M sodium carbonate. […] Data was analyzed in Microsoft Excel and GraphPad Prism programs.
# [3] = molecular target: T3, A1 (Homo sapiens, UniProt P30542); assay: A1 antagonist function; format: cell-based
# T3 sequence (P30542 1-326): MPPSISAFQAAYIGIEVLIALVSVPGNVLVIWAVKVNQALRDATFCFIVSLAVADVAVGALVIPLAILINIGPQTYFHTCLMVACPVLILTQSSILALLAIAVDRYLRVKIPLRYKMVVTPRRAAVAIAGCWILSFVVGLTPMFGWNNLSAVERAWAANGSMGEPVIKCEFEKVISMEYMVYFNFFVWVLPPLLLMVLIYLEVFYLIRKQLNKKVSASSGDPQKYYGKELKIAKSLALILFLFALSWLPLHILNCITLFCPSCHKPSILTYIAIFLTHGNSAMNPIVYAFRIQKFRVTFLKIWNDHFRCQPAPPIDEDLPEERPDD
Compound,Ki [1],Ki [2],Ki [3]
CC(O)C(O)c1cccc2c1-c1nc(N)nc(-c3ccccc3)c1C2=O (stereo not drawn) [Compound 33],0.175 nM,0.34 nM,0.021 nM
"CN(C)CCN(C)C(=O)c1c(N)nc(-c2ccco2)c2c1-c1ccccc1C2=O [Compound 77, 9H-indeno[2,1-c]pyridine-4-carboxylic acid, 3-amino-1-furan-2-yl-9-oxo-, (2-dimethylamino-ethyl)-methyl-amide]",,,> 500 nM
Nc1nc(-c2ccco2)c2c(n1)-c1cccc(N)c1C2=O [Compound 20],0.05 nM,0.126 nM,0.91 nM
"CC(CN(C)C)NC(=O)c1c(N)nc(-c2ccco2)c2c1-c1ccccc1C2=O (stereo not drawn) [Compound 78, 9H-indeno[2,1-c]pyridine-4-carboxylic acid, 3-amino-1-furan-2-yl-9-oxo-, (2-dimethylamino-1-methyl-ethyl)-amide]",,,> 500 nM
COc1ccc(-c2nc(N)nc3c2C(=O)c2ccccc2-3)cn1 [Compound 30],31.6 nM,,
CN(C)CCOC(=O)c1c(N)nc(-c2ccsc2)c2c1-c1ccccc1C2=O [Compound 93],64 nM,,
CN1CCN(Cc2cccc3c2C(=O)c2c(-c4ccccc4)nc(N)nc2-3)CC1 [Compound 50],80.2 nM,,
"CS(=O)(=O)c1nc(N)nc2c1C(=O)c1ccccc1-2 [Compound 40, 2-Amino-4-methanesulfonyl-indeno[1,2-d]pyrimidin-5-one]",2720 nM,,
Nc1nc(-c2ccccc2)c2c(n1)-c1cccc(CN3CCN(CCO)CC3)c1C2=O [Compound 58],30.6 nM,11.7 nM,61 nM
C[C@@H](CN(C)C)OC(=O)c1c(N)nc(-c2ccco2)c2c1-c1ccccc1C2=O [Compound 96],48.5 nM,10.1 nM,52.5 nM
